{"source": "patent US10945989B2", "about": "“Perinatal treatment with a flavonoid agonist of the TrkB receptor for BDNF rescues neurogenesis and behavior in the Ts65Dn mouse model of DS” (ALMA MATER STUDIORUM—Universita' di Bologna, priority 2017, dated 2021)", "key": {"[1]": {"test_system": "NPCs from the SVZ of Ts65Dn mice", "experiment": "Neuron maturation: cells exhibiting neuritic processes, SVZ NPCs", "assay_type": "cell-based, mouse", "conditions": "96 h, vs standard medium", "procedure": "(§1) Cells were isolated from the subventricular zone (SVZ) of the lateral ventricle and the subgranular zone (SGZ) of the hippocampal dentate gyrus (DG) of newborn (P1-P2) euploid and Ts65Dn mice. Briefly, brains were removed, the SVZ and SGZ regions were isolated and individually collected in ice-cold PIPES buffer pH 7.4. After centrifugation, tissue was digested for 10 min at 37° C. using Trypsin/EDTA 0.25% (Life Technologies) aided by gentle mechanical dissociation. Cell suspension from each individual mouse was plated onto 25 cm^2 cell-culture flask (Thermo Fisher Scientific) and cultured as floating neurospheres in medium containing basic fibroblast growth factor (bFGF, 10 ng/ml; Peprotech) and epidermal growth factor (EGF, 20 ng/ml; Peprotech) using an established protocol (Meneghini et al., 2014). […] Cell proliferation was quantified as relative luminescence units (RLU) values using Cell Titer-Glo viability assay reagent (Promega) on aVictor^3-V plate reader (PerkinElmer). […] In each experiment, five fields/well (corresponding to about 150-200 cells/well) were counted with a 60× objective by a Leica DMIRB inverted fluorescence microscope. Immunoreactive cells were counted and their percentage over total viable cells was calculated. […]"}, "[2]": {"experiment": "Prenatal treatment: abortion rate, pups per litter, mortality of progeny", "procedure": "Ts65Dn females (n=4) were bred C57BL/6JEi×C3SnHeSnJ (B6EiC3) F1 males (n=4). Conception was determined by examining the vaginal plug. Pregnant females received a daily subcutaneous injection of either 7,8-DHF (Sigma-Aldrich) in PBS with 2% DMSO (dose: 5 mg/kg) or vehicle from the embryonic (E) day 10 (E10) to the day of delivery (E20/21). […] On postnatal day 2 (P2) the progeny of 7,8-DHF-treated and vehicle-treated females received an intraperitoneal injection (150 μg/g body weight) of BrdU (Sigma) in 0.9% NaCl solution and were killed after 2 h (on P2; 4-8 animals for each group). Vehicle-treated females and their progeny will be called hereafter untreated mice. The body weight of P2 mice was recorded prior to sacrifice. After sacrifice, brain was excised and weighed.\nThe Ts65Dn strain is characterized by a high mortality rate during gestation (Roper et al., 2006)."}, "[3]": {"test_system": "proliferating cells in the SVZ", "experiment": "Prenatal treatment: BrdU-positive cells in the SVZ of P2 mice", "assay_type": "in vivo, mouse", "procedure": "Conception was determined by examining the vaginal plug. […] After sacrifice, brain was excised and weighed.\nOne of 20 sections (n=8-10) from the beginning to the end of the hippocampal formation were subjected to double-fluorescence immunohistochemistry for BrdU and NeuN. Sections were incubated overnight at 4° C. with a primary antibody, rat monoclonal anti-BrdU antibody (AbD Serotec), diluted 1:100 in 0.1% Triton X-100 in PBS and either mouse monoclonal anti-NeuN (Millipore Bioscience Research Reagents) diluted 1:400 in 0.1% Triton X-100 in PBS. Sections were then washed in 0.1% Triton X-100 in PBS for 40 min and incubated for 2 h with a Cy3-conjugated anti-rat IgG (1:200; Jackson Immunoresearch) secondary fluorescent antibody for BrdU immunohistochemistry and FITC-conjugated anti-mouse IgG (1:200; Jackson Immunoresearch) for NeuN immunohistochemistry.\nBrdU-positive cells were sampled in the caudal subventricular zone (SVZ) of the lateral ventricle overlying the dentate gyrus and from the subgranular zone (SGZ) of the dentate gyrus (FIG. 10A). The caudal SVZ is the region that stretches from the beginning to the end of the hippocampal formation (BC: 3.27-4.84 mm). Since different regions of the ventricular zone (VZ) and SVZ give origin to neurons destined to different telecephalic areas (Brazel et al., 2003), we evaluated the effects of treatment both in the dorsal and lateral part of the SVZ (FIG. 10B). For cell counting, an area was traced enclosing the whole SVZ and all cells in this area were counted. While at later life stages, neural progenitor cells are only present in the SGZ of the dentate gyrus, in P2 pups proliferating cells can be detected in the perspective molecular layer and hilus. Therefore, cells were counted within a manually-traced area enclosing the whole dentate gyrus (FIG. 10B). […] Quantification of BrdU-labeled nuclei was conducted in every 20th section. The total number of BrdU labeled cells in the SVZ and SGZ was estimated by multiplying the number counted in the sampled sections by the inverse of the section sampling fraction (ssf= 1/20)."}, "[4]": {"test_system": "NPCs from the SVZ of Ts65Dn mice", "experiment": "Differentiation of NPC cultures (MAP2/Nestin immunolocalization)", "assay_type": "cell-based, mouse", "conditions": "96 h, differentiating conditions", "procedure": "as §1"}}, "data": [{"smiles": "O=c1cc(-c2ccccc2)oc2c(O)c(O)ccc12", "note": "[7,8-DHF, 7,8-dihydroxyflavone]", "values": [{"measurement": "doses that increased the percentage of cells exhibiting neuritic processes", "setting": "[1]", "result": "higher than 0.3 μM"}, {"measurement": "mean number of pups per litter", "setting": "[2]; female, Ts65Dn, mouse, in vivo", "result": "5.33±2.04"}, {"measurement": "spontaneous abortion", "setting": "[2]; mouse, in vivo", "result": "none of untreated and treated females underwent spontaneous abortion"}, {"measurement": "mortality rate of the progeny", "setting": "[2]; treated females, mean±ES, vehicle 0.00±0.00, p=0.219", "result": "0.66±0.81"}, {"measurement": "total number of BrdU-positive cells in the SVZ, treated Ts65Dn vs untreated euploid mice", "setting": "[3]; P2, treated E10-E20/21", "result": "no differences in total number of BrdU-positive cells"}, {"measurement": "total number of BrdU-positive cells in the SVZ", "setting": "[3]; P2 Ts65Dn mice, dams 5 mg/kg s.c. E10-E20/21, untreated Ts65Dn approx. 22500, euploid approx. 32300", "result": "approximately 33900"}, {"measurement": "increase in cell number in the SVZ vs untreated Ts65Dn", "setting": "[3]; P2 Ts65Dn mice, treated E10-E20/21", "result": "+50%"}, {"measurement": "percentage of Nestin+/MAP2- cells", "setting": "[4]", "result": "no change"}, {"measurement": "percentage of MAP2+/Nestin− cells", "setting": "[4]; all concentrations, vs standard medium", "result": "large increase"}]}]}
